Results reported in US20100160454A1, “ANTIMICROBIAL AGENTS, COMPOSITIONS AND PRODUCTS CONTAINING THE SAME, AND METHODS OF USING THE COMPOSITIONS AND PRODUCTS” (Eastman Chemical Company, priority 2008, published 2010).

Legend:
[1] = system: Bacillus subtilis ATCC 6633; test: Determination of MIC and MLC in test broth; type: cell-based; conditions: Bacillus subtilis ATCC 6633, 30-day subculture
Procedure: (§1) Two antimicrobial endpoints were investigated. The minimum inhibitory concentration (MIC), which identifies the lowest concentration of test material at which growth for a specific organism is inhibited (by a minimum of 3 log units), reflects “biostatic activity”. The minimum lethal concentration (MLC), or lowest concentration that kills the organism and at which subculturing with growth is not possible, reflects “biocidal activity”. 1,4-CHDM and propylene glycol (PG) were added to previously sterilized screw-cap glass tubes and diluted with Peptone Water Broth with 2 wt % Dextrose (=test broth) to the following dilutions (weight percent): 0.05, 0.075, 0.125, 0.25, 0.5, 0.75, 1.25, 2.5, 5.0, 7.5, 10.0, 15.0, 20.0.
(§2) Each of 12 sets of the above test tubes were challenged with specific organisms (see Table 5) to produce a contamination of between 1.0×10^5 cfu/g and 1.0×10^6 cfu/g in the test broth to which no 1,4-CHDM or propylene glycol had been added. These challenge organisms were prepared in TSB broth, allowed to grow for 72 hours at 35° C.+/−2° C., centrifuged at 2500 rpm for 5 minutes, and the supernatant broth was removed. The microbial pellet was then re-diluted with sterile buffered water to a turbidity that matched previous 1.0×10^6 cfu/g concentrations of that organism's specific growth curve. This challenge was repeated on day 3. Plate counts of both challenges enumerated to within 1.0×10^5+/−5,000 cfu/g after 7 days incubation at 35° C.+/−2° C.
(§3) These tubes were mixed well by inversion (minimum of 25 inversions) and incubated at 35° C.+/−2° C. The tubes were inverted again (minimum of 25 times) on the third and seventh day of incubation and prior to each subculture.
(§4) These subcultures were incubated under optimal conditions and nutrition for no less than 5 days. Subcultures of 0.1 ml, undiluted and diluted 1:10, 1:100, . . . , and 1:10,000, were transferred to plates using the spread plate method onto Plate Count Agar; and SAB Dextrose Agar in addition for the Candida and Aspergillus species; and incubated as follows: 35° C.+/−2° C. for the Plate Count Agar and 22° C.+/−2° C. for the SAB Dextrose plates of Candida albicans and Aspergillus niger. Negative results were not reported before 7 days incubation and counts were performed after no less than 5 days incubation. Counts of Candida and Aspergillus species were made on the agar representing the highest count observed, usually the SAB Dextrose.

[2] = system: Burkholderia cepacia ATCC 25416; test: Determination of MIC and MLC in test broth; type: cell-based; conditions: Burkholderia cepacia ATCC 25416, 30-day subculture
Procedure: as §1, §2, §3, §4

[3] = system: Staphylococcus aureus ATCC 25923; test: Determination of MIC and MLC in test broth; type: cell-based; conditions: Staphylococcus aureus ATCC 25923, 30-day subculture
Procedure: as §1, §2, §3, §4

[4] = system: Aspergillus niger ATCC 16404; test: Determination of MIC and MLC in test broth; type: cell-based; conditions: Aspergillus niger ATCC 16404, 30-day subculture
Procedure: as §1, §2, §3, §4

Streptococcus faecalis = test: Determination of MIC and MLC in test broth; type: cell-based; conditions: 30-day subculture
Procedure: as §1, §2, §3, §4

Streptococcus pyogenes = test: Determination of MIC and MLC in test broth; type: cell-based; conditions: 30-day subculture
Procedure: as §1, §2, §3, §4

[5] = system: Pseudomonas aeruginosa ATCC 27853; test: Determination of MIC and MLC in test broth; type: cell-based; conditions: Pseudomonas aeruginosa ATCC 27853, 30-day subculture
Procedure: as §1, §2, §3, §4

[6] = system: Penicillium notatum ATCC 36740; test: Determination of MIC and MLC in test broth; type: cell-based; conditions: Penicillium notatum ATCC 36740, 30-day subculture
Procedure: as §1, §2, §3, §4

[7] = system: Candida albicans ATCC 10231; test: Determination of MIC and MLC in test broth; type: cell-based; conditions: Candida albicans ATCC 10231, 30-day subculture
Procedure: as §1, §2, §3, §4

[8] = system: Escherichia coli ATCC 25922; test: Determination of MIC and MLC in test broth; type: cell-based; conditions: Escherichia coli ATCC 25922, 30-day subculture
Procedure: as §1, §2, §3, §4

Proteus vulgaris = test: Determination of MIC and MLC in test broth; type: cell-based; conditions: 30-day subculture
Procedure: as §1, §2, §3, §4

[9] = Water extraction of 1,4-CHDM from biodiesel, gas chromatography; type: physicochemical; conditions: soy biodiesel with theoretical 0.024 wt % CHDM, 0.90% water added, 3 days, centrifuged
Procedure: A solution of 59.5 wt % 1,4-CHDM in ethoxydiglycol (Eastman DE solvent) was prepared by weighing into a vial 1.36 g ethoxydiglycol and 2.00 g 1,4-CHDM. The mixture was heated to 55° C. to melt the 1,4-CHDM, mixed on a vortex mixer, then placed on a rocker mixer overnight at room temperature to allow all of the 1,4-CHDM to dissolve.
1,4-CHDM was added to soy biodiesel as follows: 60.00 g soy biodiesel was weighed into 4-oz jar. 0.0246 g of the above CHDM/DE solution was weighed into the biodiesel. The sample was mixed using a magnetic stirrer. There was no visible separation after mixing and the biodiesel remained clear. The theoretical amount of CHDM in the biodiesel is 0.024 wt %. 5.00 g was removed from the sample for analysis.
To make a biodiesel mixture containing 0.90% water, 0.50 g deionized water was added to the remaining 55.0 g 1,4-CHDM/DE/biodiesel mixture and mixed with a magnetic stirrer. The mixture became cloudy when stirred and also contained visible water droplets. The mixture was allowed to sit undisturbed for 3 days, during which time a white aqueous layer appeared on the bottom and the biodiesel (top layer) still remained cloudy. The mixture was centrifuged to separate as much water as possible from the biodiesel. […] The 1,4-CHDM/DE/biodiesel mixtures before and after water extraction and the bottom aqueous layer were analyzed by gas chromatography for 1,4-CHDM. […]

| SMILES | MIC 30 DAYS [1] [wt %] | MLC 30 DAYS [1] [wt %] | MIC 30 DAYS [2] [wt %] | MLC 30 DAYS [2] [wt %] | MIC 30 DAYS [3] [wt %] | MLC 30 DAYS [3] [wt %] | MIC 30 DAYS [4] [wt %] | MLC 30 DAYS [4] [wt %] | MIC 30 DAYS (Streptococcus faecalis) [wt %] | MLC 30 DAYS (Streptococcus faecalis) [wt %] | MIC 30 DAYS (Streptococcus pyogenes) [wt %] | MLC 30 DAYS (Streptococcus pyogenes) [wt %] | MIC 30 DAYS [5] [wt %] | MLC 30 DAYS [5] [wt %] | MIC 30 DAYS [6] [wt %] | MLC 30 DAYS [6] [wt %] | MIC 30 DAYS [7] [wt %] | MLC 30 DAYS [7] [wt %] | MIC 30 DAYS [8] [wt %] | MLC 30 DAYS [8] [wt %] | also measured |
| --- | --- | --- | --- | --- | --- | --- | --- | --- | --- | --- | --- | --- | --- | --- | --- | --- | --- | --- | --- | --- | --- |
| OCC1CCC(CO)CC1 (stereo not drawn) [1,4-CHDM, 1,4-cyclohexanedimethanol] | 2.5 | >20 | 1.25 | 20 | 5 | >20 | 2.5 | >20 | 2.5 | >20 | 2.5 | 20 | 2.5 | 20 | 5 | >20 | 2.5 | 20 | 2.5 | >20 | MIC 30 DAYS (Proteus vulgaris): 2.5 wt %; MLC 30 DAYS (Proteus vulgaris): >20 wt %; 1,4-CHDM content of the aqueous bottom layer [9]: 0.38 wt % |
| CC(O)CO (stereo not drawn) [PG, propylene glycol] | 10 | >20 | 10 | >20 | 20 | >20 | 20 | >20 | 20 | >20 | 20 | >20 | 10 | >20 | >20 | >20 | 20 | >20 | 10 | >20 | MIC 30 DAYS (Proteus vulgaris): 20 wt %; MLC 30 DAYS (Proteus vulgaris): >20 wt % |
